Article PMC8179336, “Impact of sphingosine and acetylsphingosines on the aggregation and toxicity of metal-free and metal-treated amyloid-β” (Chemical Science, 2020)

What follows are compounds tested against T1, amyloid-β (Aβ40) (Homo sapiens, UniProt P05067) (assay: ITC and 2D 1H-15N SOFAST-HMQC NMR (below and above the CAC)).
T1 construct: gene APP; Aβ40
Type: binding

T1 sequence (P05067 672-711 limits assumed): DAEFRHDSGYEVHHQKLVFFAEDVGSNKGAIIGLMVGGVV

| SMILES | ITC and 2D 1H-15N SOFAST-HMQC NMR (below and above the CAC) |
| --- | --- |
| CCCCCCCCCCCCC/C=C/[C@H](OC(C)=O)[C@@H](N)CO [3-O-Ac-SP, (2S,3S,E)-2-amino-1-hydroxyoctadec-4-en-3-yl acetate] | These observations indicate weak and nonspecific interactions of both N-Ac-SP and 3-O-Ac-SP towards Aβ. |
| CCCCCCCCCCCCC/C=C/[C@@H](O)[C@H](CO)NC(C)=O [N-Ac-SP, (2S,3R,4E)-2-(acetylamino)-4-octadecene-1,3-diol] | Interactions between the two acetylsphingosines and Aβ exhibited spontaneous complexation showing an endothermic process |
| CCCCCCCCCCCCC/C=C/[C@@H](O)[C@@H](N)CO [SP, (2S,3R)-2-aminooctadec-4-trans-ene-1,3-diol] | For the association of SP with Aβ, an endothermic isotherm was recorded with negative Gibbs free energy change |
